Measured values: US20040076659A1, “Additive for livestock feeds” (priority 1994, published 2004)

Legend:
dairy cows [1] = test: Two levels of Tween 80, milk production and feed intake in cows under heat stress (Example 5); assay type: in vivo, Holstein; conditions: for Drop in milk production: week 11 (heat stress)
Text: Seventy-five dairy cows of the Holstein breed were ranked according to lactation number, days in milk and production level and placed into three equal groups. Treatments were then randomly assigned to individual animals within the groups. There were 25 animals in each dietary treatment group. Cows were offered ad libitum access to a total mixed ration (TMR) based on grass silage, corn silage, grass hay and a commercial dairy concentrate. The treatments consisted of:
Treatment 1—Control diet (TMR).
Treatment 2—TMR containing 0.2% (w/w) Tween 80, and
Treatment 3—TMR containing 0.3% (w/w) Tween 80.
The experiment lasted 12 weeks. All cows were fed the control diet during the first week. This period served as a pretrial week. Cows in each treatment group were then fed their experimental diets for ten weeks. Milk production and feed intake were, monitored from the first week (pretrial) until the 12th week (one week after the experimental diets were withdrawn).
Ambient temperatures exceeded 40° C. during weeks 10 and 11 of the experiment resulting in considerable heat stress in the cows. Milk production and feed intake data are discussed in the light of the heat stress.

rumen cellulase activity = test: In vitro cellulose degradation by rumen bacterial inoculum; assay type: biochemical, cows; conditions: 0.25% surfactant in reaction mixture; regression on initial 24 hr
Protocol: A bacterial fraction, largely free of protozoa, was prepared for the fermentation assays by using the procedure of Forsberg, “Some Effects of Arsenic on the Rumen Microflora; An In Vitro Study,” Can. J. Microbiol. 24:36 (1978). The digesta inoculum was resuspended and washed twice in an equivalent amount of 0.1 M phosphate buffer pH 6.8 to the rumen fluid. The inoculum provided both, the substrate and the enzyme used for cellulose degradation assay. Incubation periods were 0, 1.5, 3, 6, 12, 24, and 48 hr. Other incubation conditions were similar to those outlined in experiment 1 above. However, cellulose was determined by the method of Updergraff, supra, for the in vivo digestibility trial. The optimal level of Tween 80 obtained was adopted here and followed.

[2] = tested on: rumen microbial cells enzyme source; test: Microbial protein adsorption to ground barley straw; parameters: species or system cows
Protocol: For the cellulose adhesion tests, the microbial enzyme source was resuspended and tested for adhesion on to a cellulose. substrate (barley straw, with 4% CP and ground through 0.5 mm sieve). […] 0.1 g of the straw in 5 ml of a bacterial cell-enzyme inoculum suspension, and then following the supernatant protein change with time. Readings were taken at 10, 20, 30, 60, and 120 min. At the end of the adsorption period, the assay contents were centrifuged at 2500 g max for 10 min to precipitate the solids, and the protein in the supernatant was precipitated out by 15% TCA solution and quantified by the Bicichoninic method (Smith et al., “Measurement of protein using bicinchonic acid,” Anal. Biochem. 150:76 (1984)). […]

dairy cows [3] = test: Tween 80 in total mixed ration, dairy herd trial (Example 4); assay type: in vivo, Holsteins
Text: One hundred and twenty cows and heifers in a dairy herd of Holsteins were divided into three treatment groups of 40 animals per group. All animals were given ad libitum access to a total mixed ration (TMR) based on grass silage, corn silage, grass hay, barley and canola meal. The treatments imposed were: Treatment 1—TMR without additive (Control). Treatment 2—TMR formulated to contain 0.2% (wt/wt) Tween 80+0.1% enzyme preparation (wt/wt). Treatment 3—TMR formulated to contain 0.2% (wt/wt) Tween 80. The Tween 80 was coated onto silica to form a product containing 50% Tween 80 and 50% silica. The enzyme preparation was obtained from Lucta S. A. (Barcelona, Spain). The preparation had the following activities: β-glucanase 263.0, xylanase 75.1 and amylase 542.6. Activities were expressed as nmol of reducing sugars released per mg of enzyme in 1 min at 0.83 mg/ml enzyme concentration. The trial lasted 13 weeks. Animals received their respective dietary treatments for 12 weeks. Milk production and feed intake were monitored until the 13th week (1 week after animals had been removed from dietary treatments). Feed (TMR) offered to each group was weighed and recorded at each feeding. Each group was fed to provide a weighback of 5%. Samples of the feed offered and refused were taken daily, composited into weekly samples and dried at 55° C. for 72 hr to determine dry matter (DM) content. Daily (AM and PM) milk production by each cow was recorded. Animals were weighed two days in a row immediately after milking on a monthly basis. Milk samples were taken for compositional analyses (fat, protein, and somatic cells) in the week preceding the trial, and then during the trial at 4 week intervals. Samples were taken from both the AM and the PM milkings and analyzed individually.

[4] = Griffin et al., 1972; cited from earlier work
[5] = In vitro true digestibility (IVTD) of orchardgrass hay, Ankom in vitro system, 22 h
Protocol: The carriers were celite (Fisher Scientific Co. New Jersey, USA), diatomaceous earth (Sigma Chemical Co. St. Louis, Mo.) and LuctaCarrier (Lucta, S. A. Barcelona, Spain). Tween 80 was mixed with the carriers such that the resulting mixture contained 50% Tween 80 (wt/wt). The ability of Tween 80 in these mixtures to improve digestive efficiency was evaluated in vitro with orchardgrass hay that had been ground to pass through a 1 mm screen. Treatments included 0 (control), 0.1 and 0.2% liquid Tween 80, 0.1 and 0.2% Tween 80 in diatomaceous earth, 0.1 and 0.2% Tween 80 in celite, and 0.1 and 0.2% Tween 80 in LuctaCarrier. Appropriate quantities of each substrate were mixed with the additives and incubated in the Ankom in vitro system (Ankom Technology Fairport NY) for 22 h.

[6] = first calf heifers, 0.2% Tween 80, second week of heat stress

In the case of “polyoxyethylene sorbitan monoleate [Tween 80]”, the Weight gain (dairy cows [1]; 0.2% Tween 80, first 30 d) is reported as 1 kg, the “Depression in dry matter intake” value (dairy cows [1]; 0.2% Tween 80, first week of heat stress) is reported as 3.4% and the Weight gain (dairy cows [1]; 0.2% Tween 80, last 60 days) is reported as 9 kg. The “Depression in dry matter intake” value (dairy cows [1]; 0.2% Tween 80, second week of heat stress) was 14.4%, the “Drop in milk production” value (dairy cows [1]; 0.2% Tween 80) was 23.6% and the Weight gain (dairy cows [1]; 0.3% Tween 80, first 30 d) was 2.5 kg. For the same substance, the “Depression in dry matter intake” value (dairy cows [1]; 0.3% Tween 80, first week of heat stress) was 6.0%, the Weight gain (dairy cows [1]; 0.3% Tween 80, last 60 days) was 4.5 kg and the “Depression in dry matter intake” value (dairy cows [1]; 0.3% Tween 80, second week of heat stress) was 12.6%. For the same substance, the “Drop in milk production” value (dairy cows [1]; 0.3% Tween 80) was 22%, the “Fall in milk production” value (dairy cows [1]; Tween 80 treatments (0.2 and 0.3%), first week of heat stress (week 10)) was “about 11%” and the “More milk than control, on average” value (dairy cows [1]; first calf heifers, 0.2% Tween 80) was 2 kg/day. For the same substance, the “Increase in milk over control” value (dairy cows [1]; [6]) was 13.6%, the “More milk than control” value (dairy cows [1]; [6]) was “more than 3.6 kg/day” and the “More milk than control, on average” value (dairy cows [1]; mature cows, 0.2% Tween 80) was 3.54 kg/day. The “More milk than control, on average” value (dairy cows [1]; mature cows, 0.3% Tween 80) was 3.98 kg/day, the “Initial rate of cellulose degradation” value (rumen cellulase activity) was 1.04c (0.32) μg/ml/hr and the “Microbial protein adsorption extent” value ([2]; 0.05% additive) was 1.12b μg/mg. For the same substance, the “Microbial protein adsorption rate” value ([2]; 0.05% additive) was 0.032b (0.01) μg/mg/min, the “Microbial protein adsorption extent” value ([2]; 0.10% additive) was 1.21c μg/mg and the “Microbial protein adsorption rate” value ([2]; 0.10% additive) was 0.034c (0.02) μg/mg/min. For the same substance, the “Microbial protein adsorption extent” value ([2]; 0.25% additive) was 1.18c μg/mg, the “Microbial protein adsorption rate” value ([2]; 0.25% additive) was 0.035c (0.01) μg/mg/min and the “Microbial protein adsorption extent” value ([2]; 0.50% additive) was 1.19c μg/mg. The “Microbial protein adsorption rate” value ([2]; 0.50% additive) was 0.034c (0.02) μg/mg/min, the “More milk per cow than control over the 12-week period” value (dairy cows [3]; 0.2% Tween 80 (with or without 0.1% enzyme)) was 64 kg and the “Average increase in milk production over control” value (dairy cows [3]; all cows lactating at least 3 weeks before start, 0.2% Tween 80 (with or without 0.1% enzyme)) was 0.76 kg/cow/day. For the same substance, the “Milk produced (kg) per kg of feed consumed” value (dairy cows [3]; feed conversion efficiency) was 1.48 kg per kg of feed, the “More milk than control” value (dairy cows [3]; fresh cows, after the 4th week of lactation) was “approximately 4 kg more milk/cow/day” and the “More milk than a cow on Tween 80 plus enzyme over 12 weeks” value (dairy cows [3]; mature cow, 0.2% Tween 80) was 74 kg. The “More milk than a cow on the control diet over 12 weeks” value (dairy cows [3]; mature cow, 0.2% Tween 80) was 110 kg, the “Average increase in milk production” value (dairy cows [3]; mature cows, 0.2% Tween 80) was 1.31 kg/day and the “HLB (hydrophile-lipophile balance)” value [4] was 15. The “In vitro true digestibility (IVTD)” value ([5]; 0.1% Tween 80) was 54.20% and the “In vitro true digestibility (IVTD)” value ([5]; 0.2% Tween 80) was 54.93%.
